Data as given in ChEMBL document CHEMBL4715697, “Synthesis and biological activity of benzamide DNA minor groove binders” (2016).

Experiments:
[1] = test system: Poly(dA-dT)oligonucleotide; experiment: Binding affinity to minor groove of poly(dA:dT) dsDNA (unknown origin) assessed as change in melting temperature by UV-vis spectrophotometry based DNA melting assay; assay type: nucleic-acid assay
[2] = test system: Poly(dA-dT)oligonucleotide; experiment: Displacement of ethidium bromide from minor groove of poly(dA:dT) dsDNA (unknown origin) by fluorescence spectrophotometry; assay type: nucleic-acid assay
HCC 2998 [3] = experiment: Growth inhibition of human HCC 2998 cells assessed as cell growth at 0.01 uM incubated for 48 hrs by sulforhodamine B assay relative to control; assay type: functional; settings: read-out: Activity
SF-268 [4] = experiment: Growth inhibition of human SF-268 cells assessed as cell growth at 0.01 uM incubated for 48 hrs by sulforhodamine B assay relative to control; assay type: functional; settings: read-out: Activity
SF-268 [5] = experiment: Growth inhibition of human SF-268 cells assessed as cell growth at 0.1 uM incubated for 48 hrs by sulforhodamine B assay relative to control; assay type: functional; settings: read-out: Activity
Malme-3M [6] = experiment: Growth inhibition of human Malme-3M cells assessed as cell growth at 0.1 uM incubated for 48 hrs by sulforhodamine B assay relative to control; assay type: functional; settings: read-out: Activity
SK-MEL-5 = experiment: Growth inhibition of human SK-MEL-5 cells assessed as cell growth at 0.1 uM incubated for 48 hrs by sulforhodamine B assay relative to control; assay type: functional; settings: read-out: Activity
K562 = experiment: Growth inhibition of human K562 cells assessed as cell growth at 1 uM incubated for 48 hrs by sulforhodamine B assay relative to control; assay type: functional; settings: read-out: Activity
HCT-15 = experiment: Growth inhibition of human HCT-15 cells assessed as cell growth at 1 uM incubated for 48 hrs by sulforhodamine B assay relative to control; assay type: functional; settings: read-out: Activity
KM12 = experiment: Growth inhibition of human KM12 cells assessed as cell growth at 1 uM incubated for 48 hrs by sulforhodamine B assay relative to control; assay type: functional; settings: read-out: Activity
SNB-19 = experiment: Growth inhibition of human SNB-19 cells assessed as cell growth at 1 uM incubated for 48 hrs by sulforhodamine B assay relative to control; assay type: functional; settings: read-out: Activity
OVCAR-3 [7] = experiment: Growth inhibition of human OVCAR-3 cells assessed as cell growth at 1 uM incubated for 48 hrs by sulforhodamine B assay relative to control; assay type: functional; settings: read-out: Activity
OVCAR-8 = experiment: Growth inhibition of human OVCAR-8 cells assessed as cell growth at 1 uM incubated for 48 hrs by sulforhodamine B assay relative to control; assay type: functional; settings: read-out: Activity
CCRF-CEM = experiment: Growth inhibition of human CCRF-CEM cells assessed as cell growth at 10 uM incubated for 48 hrs by sulforhodamine B assay relative to control; assay type: functional; settings: read-out: Activity
HOP-62 = experiment: Growth inhibition of human HOP-62 cells assessed as cell growth at 10 uM incubated for 48 hrs by sulforhodamine B assay relative to control; assay type: functional; settings: read-out: Activity
COLO 205 = experiment: Growth inhibition of human COLO 205 cells assessed as cell growth at 10 uM incubated for 48 hrs by sulforhodamine B assay relative to control; assay type: functional; settings: read-out: Activity
HCC 2998 [8] = experiment: Growth inhibition of human HCC 2998 cells assessed as cell growth at 10 uM incubated for 48 hrs by sulforhodamine B assay relative to control; assay type: functional; settings: read-out: Activity
SF-268 [9] = experiment: Growth inhibition of human SF-268 cells assessed as cell growth at 10 uM incubated for 48 hrs by sulforhodamine B assay relative to control; assay type: functional; settings: read-out: Activity
SF-295 [10] = experiment: Growth inhibition of human SF-295 cells assessed as cell growth at 10 uM incubated for 48 hrs by sulforhodamine B assay relative to control; assay type: functional; settings: read-out: Activity
SF-539 = experiment: Growth inhibition of human SF-539 cells assessed as cell growth at 10 uM incubated for 48 hrs by sulforhodamine B assay relative to control; assay type: functional; settings: read-out: Activity
LOX IMVI = experiment: Growth inhibition of human LOX IMVI cells assessed as cell growth at 10 uM incubated for 48 hrs by sulforhodamine B assay relative to control; assay type: functional; settings: read-out: Activity
Malme-3M [11] = experiment: Growth inhibition of human Malme-3M cells assessed as cell growth at 10 uM incubated for 48 hrs by sulforhodamine B assay relative to control; assay type: functional; settings: read-out: Activity
M14 = experiment: Growth inhibition of human M14 cells assessed as cell growth at 10 uM incubated for 48 hrs by sulforhodamine B assay relative to control; assay type: functional; settings: read-out: Activity
OVCAR-4 = experiment: Growth inhibition of human OVCAR-4 cells assessed as cell growth at 10 uM incubated for 48 hrs by sulforhodamine B assay relative to control; assay type: functional; settings: read-out: Activity
A498 = experiment: Growth inhibition of human A498 cells assessed as cell growth at 10 uM incubated for 48 hrs by sulforhodamine B assay relative to control; assay type: functional; settings: read-out: Activity
ACHN = experiment: Growth inhibition of human ACHN cells assessed as cell growth at 10 uM incubated for 48 hrs by sulforhodamine B assay relative to control; assay type: functional; settings: read-out: Activity
CAKI-1 [12] = experiment: Growth inhibition of human CAKI-1 cells assessed as cell growth at 10 uM incubated for 48 hrs by sulforhodamine B assay relative to control; assay type: functional; settings: read-out: Activity
DU-145 = experiment: Growth inhibition of human DU-145 cells assessed as cell growth at 10 uM incubated for 48 hrs by sulforhodamine B assay relative to control; assay type: functional; settings: read-out: Activity
MCF7 = experiment: Growth inhibition of human MCF7 cells assessed as cell growth at 10 uM incubated for 48 hrs by sulforhodamine B assay relative to control; assay type: functional; settings: read-out: Activity
MDA-MB-231 = experiment: Growth inhibition of human MDA-MB-231 cells assessed as cell growth at 10 uM incubated for 48 hrs by sulforhodamine B assay relative to control; assay type: functional; settings: read-out: Activity
Hs-578T = experiment: Growth inhibition of human Hs-578T cells assessed as cell growth at 10 uM incubated for 48 hrs by sulforhodamine B assay relative to control; assay type: functional; settings: read-out: Activity
MDA-MB-468 = experiment: Growth inhibition of human MDA-MB-468 cells assessed as cell growth at 10 uM incubated for 48 hrs by sulforhodamine B assay relative to control; assay type: functional; settings: read-out: Activity
A549 = experiment: Growth inhibition of human A549/ATCC cells assessed as cell growth at 100 uM incubated for 48 hrs by sulforhodamine B assay relative to control; assay type: functional; settings: read-out: Activity
HT-29 = experiment: Growth inhibition of human HT-29 cells assessed as cell growth at 100 uM incubated for 48 hrs by sulforhodamine B assay relative to control; assay type: functional; settings: read-out: Activity
CAKI-1 [13] = experiment: Growth inhibition of human CAKI-1 cells assessed as cell growth at 100 uM incubated for 48 hrs by sulforhodamine B assay relative to control; assay type: functional; settings: read-out: Activity
SF-295 [14] = experiment: Growth inhibition of human SF-295 cells incubated for 48 hrs by sulforhodamine B assay; assay type: functional
OVCAR-3 [15] = experiment: Growth inhibition of human OVCAR-3 cells incubated for 48 hrs by sulforhodamine B assay; assay type: functional
RXF 393 = experiment: Growth inhibition of human RXF 393 cells incubated for 48 hrs by sulforhodamine B assay; assay type: functional

For `CC(=O)Nc1cc(CO[Si](C)(C)C(C)(C)C)cc(NC(=O)c2ccc(C(=O)Nc3cccc(NC(=O)CCCN(C)C)c3)cc2)c1`, the ΔTm [1] was 47.2 °C, the C50 [2] was 5 µM and the growth at 0.01 µM (HCC 2998 [3]) was 98%. It also gave a growth at 0.01 µM (SF-268 [4]) of 99%, a growth at 0.1 µM (SF-268 [5]) of 100% and a growth at 0.1 µM (Malme-3M [6]) of 92%. It also gave a growth at 0.1 µM (SK-MEL-5) of 97%, a growth at 1 µM (K562) of 95% and a growth at 1 µM (HCT-15) of 87%. It also gave a growth at 1 µM (KM12) of 99%, a growth at 1 µM (SNB-19) of 101% and a growth at 1 µM (OVCAR-3 [7]) of 109%. For the same compound, the growth at 1 µM (OVCAR-8) was 97%, the growth at 10 µM (CCRF-CEM) was 109% and the growth at 10 µM (HOP-62) was 92%. The growth at 10 µM (COLO 205) was 98%, the growth at 10 µM (HCC 2998 [8]) was 93% and the growth at 10 µM (SF-268 [9]) was 94%. The growth at 10 µM (SF-295 [10]) was 95%, the growth at 10 µM (SF-539) was 89% and the growth at 10 µM (LOX IMVI) was 82%. It also gave a growth at 10 µM (Malme-3M [11]) of 88%, a growth at 10 µM (M14) of 90% and a growth at 10 µM (OVCAR-4) of 85%. The growth at 10 µM (A498) was 77%, the growth at 10 µM (ACHN) was 90% and the growth at 10 µM (CAKI-1 [12]) was 86%. For the same compound, the growth at 10 µM (DU-145) was 97%, the growth at 10 µM (MCF7) was 77% and the growth at 10 µM (MDA-MB-231) was 99%. It also gave a growth at 10 µM (Hs-578T) of 111%, a growth at 10 µM (MDA-MB-468) of 89% and a growth at 100 µM (A549) of 98%. The growth at 100 µM (HT-29) was 100%, the growth at 100 µM (CAKI-1 [13]) was 77% and the GI50 (SF-295 [14]; read-out: GI50) was > 75 µM. The LC50 (SF-295 [14]; read-out: LC50) was > 75 µM, the TGI (SF-295 [14]; read-out: TGI) was > 75 µM and the GI50 (SF-295 [14]; read-out: pGI50 (converted)) was > 75.9 µM. The LC50 (SF-295 [14]; read-out: pLC50 (converted)) was > 75.9 µM, the TGI (SF-295 [14]; read-out: pTGI) was > 75.9 µM and the GI50 (OVCAR-3 [15]; read-out: GI50) was > 75 µM. The LC50 (50% lethal concentration) (OVCAR-3 [15]; read-out: LC50) was > 75 µM, the TGI (OVCAR-3 [15]; read-out: TGI) was > 75 µM and the GI50 (OVCAR-3 [15]; read-out: pGI50 (converted)) was > 75.9 µM. The LC50 (50% lethal concentration) (OVCAR-3 [15]; read-out: pLC50 (converted)) was > 75.9 µM, the TGI (OVCAR-3 [15]; read-out: pTGI) was > 75.9 µM and the GI50 (RXF 393; read-out: GI50) was > 75 µM. For the same compound, the CC50 (RXF 393; read-out: LC50 (the source's name)) was > 75 µM, the TGI (RXF 393; read-out: TGI) was > 75 µM and the GI50 (RXF 393; read-out: pGI50 (converted)) was > 75.9 µM. For the same compound, the CC50 (RXF 393; read-out: pLC50 (the source's name) (converted)) was > 75.9 µM and the TGI (RXF 393; read-out: pTGI) was > 75.9 µM.
